Test results from patent publication US7060733B2, “Methods for treating pancreatitis with curcumin compounds and inhibitors of reactive oxygen species” (The Regents of the University of California, priority 2002, dated 2006).

Experiments:
NF-κB = test: Curcumin and N-acetylcysteine alone and in combination, NF-κB activation in CCK-stimulated acinar cells; format: cell-based, rat; settings: 0.1 μM CCK
Experimental: To measure the effects of curcumin compounds and ROS inhibitors, EMSAs and nuclear protein extractions were conducted as provided above. […] EMSAs for NF-κB activation were performed on nuclear proteins extracted from each sample.

NF-κB and AP-1 = settings: antioxidant; cited from earlier work

| Compound | inhibition of NF-κB activation in CCK-stimulated acinar cells (NF-κB; N-acetylcysteine 10 μM alone) | NF-κB activation (NF-κB and AP-1) | inhibition of NF-κB activation in CCK-stimulated acinar cells (NF-κB; curcumin 50 μM with N-acetylcysteine 10 μM) |
| --- | --- | --- | --- |
| CC(=O)N[C@@H](CS)C(=O)O [N-acetylcysteine, reference compound] | very little inhibition | inhibit |  |
| curcumin and N-acetylcysteine |  |  | synergistic effect |
